The record followed here is patent US11414431B2, “Substituted pyrazolo[1,5-a]pyrimidines as TYK2 inhibitors” (Nimbus Lakshmi, Inc., priority 2018, dated 2022).

Where only a bound is given, the exact number is not on record here.

The target of assay [1] is human TYK2 (JH2domain-pseudokinase) (Homo sapiens (Human), UniProt P29597). Description: TYK2 JH2 Domain Binding Assay (KINOMEscan). The following applies: 11-point 3-fold dilution, top concentration 30,000 nM, duplicate; read-out: hTYK2_JH2_Binding (Kd; nM). The method in brief:
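KINOMEscan competition binding: HEK293-expressed NFkB-fused TYK2 JH2 (G556–D888), DNA-tagged, against immobilized ligand beads, 1 h shaking at room temperature, 0.9% DMSO. Bound kinase quantified by qPCR.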

In assay [2] the test system is IL-12 induced STAT4 phosphorlyation mediated by TYK2/JAK2. The experiment in a line: IL-12 Induced pSTAT4 in Human PBMC. The format is cell-based. The following applies: 1.7 ng/mL IL-12 for 30 minutes. The method in brief: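 pSTAT4 and total STAT4 quantified by MSD in lysates of cryopreserved human PBMC after 30-minute stimulation with 1.7 ng/mL IL-12 (final). Compound was added 1 hr beforehand at 37° C, 0.1% DMSO final.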

Chain of human TYK2 (JH2domain-pseudokinase) (P29597 556-888): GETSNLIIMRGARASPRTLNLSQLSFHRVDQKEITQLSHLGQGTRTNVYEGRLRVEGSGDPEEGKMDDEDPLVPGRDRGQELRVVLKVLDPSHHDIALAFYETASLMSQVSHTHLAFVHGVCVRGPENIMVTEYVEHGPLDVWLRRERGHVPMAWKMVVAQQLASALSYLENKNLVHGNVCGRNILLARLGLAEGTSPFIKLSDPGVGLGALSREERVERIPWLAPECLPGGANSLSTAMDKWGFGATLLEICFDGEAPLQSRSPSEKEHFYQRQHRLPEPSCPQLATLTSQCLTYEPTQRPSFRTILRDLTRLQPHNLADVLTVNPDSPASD

As to `CNc1cc(-c2cnc3n(C4CCOCC4)cccc2-3)nc2c(C(=O)NC3CC[C@@H]3OC)cnn12` (stereo in doubt) [Compound I-985, N-(2-methoxycyclobutyl)-7-(methylamino)-5-(7-(tetrahydro-2H-pyran-4-yl)-7H-pyrrolo[2,3-b]pyridin-3-yl)pyrazolo[1,5-a]pyrimidine-3-carboxamide], the equilibrium dissociation constant (Kd) (as a rule, a measure of binding affinity in units of concentration) in assay [1] is below 0.2 nM. For the same compound, the IC50 (commonly the concentration at which inhibition is half-maximal) in assay [2] (0.5 h) was below 0.1 µM.

As to `CNc1cc(Nc2cccn([C@@H]3CCC[C@](C)(O)C3)c2=O)nc2c(C(=O)NC3CC3)cnn12` [Compound I-3, N-cyclopropyl-5-((1-((1R,3S)-3-hydroxy-3-methylcyclohexyl)-2-oxo-1,2-dihydropyridin-3-yl)amino)-7-(methylamino)pyrazolo[1,5-a]pyrimidine-3-carboxamide], the dissociation constant Kd in assay [1] is below 0.2 nM. In addition, the IC50 in assay [2] (0.5 h) was below 0.1 µM.

For the compound `CNc1cc(Nc2cccn([C@H]3C[C@H](OC)C3)c2=O)nc2c(C(=O)NC3CC3)cnn12` [Compound I-4, N-Cyclopropyl-5-((1-((1r,3r)-3-methoxycyclobutyl)-2-oxo-1,2-dihydropyridin-3-yl)amino)-7-(methylamino)pyrazolo[1,5-a]pyrimidine-3-carboxamide], in assay [1], the Kd was below 0.2 nM. The compound also registered an IC50 in assay [2] (0.5 h) below 0.1 µM.

With `CNc1cc(Nc2cccn([C@H]3C[C@H](OC)C3)c2=O)nc2c(C(=O)N[C@@H]3C[C@@H]3F)cnn12` [Compound I-8, N-((1R,2S)-2-Fluorocyclopropyl)-5-((1-((1r,3R)-3-methoxycyclobutyl)-2-oxo-1,2-dihydropyridin-3-yl)amino)-7-(methylamino)pyrazolo[5-a]pyrimidine-3-carboxamide], in assay [1], the Kd is below 0.2 nM. Also, the IC50 in assay [2] (0.5 h) is below 0.1 µM.

As for `CNc1cc(-c2cn([C@H]3CCCOC3)c3ncccc23)nc2c(C(=O)N[C@@H]3CC[C@@H]3O)cnn12` [Compound I-14, N-((1R,2S)-2-Hydroxycyclobutyl)-7-(methylamino)-5-(1-((S)-tetrahydro-2H-pyran-3-yl)-1H-pyrrolo[2,3-b]pyridin-3-yl)pyrazolo[1,5-a]pyrimidine-3-carboxamide], the Kd in assay [1] was below 0.2 nM. Further, the IC50 in assay [2] (0.5 h) was below 0.1 µM.

`CNc1cc(Nc2cccn([C@H]3CC[C@H](OC)CC3)c2=O)nc2c(C(=O)N[C@@H]3C[C@H]3OC)cnn12` [Compound I-31, 5-((1-((1r,4R)-4-Methoxycyclohexyl)-2-oxo-1,2-dihydropyridin-3-yl)amino)-N-((1R,2R)-2-methoxycyclopropyl)-7-(methylamino)pyrazolo[1,5-a]pyrimidine-3-carboxamide]: in assay [1], the equilibrium dissociation constant (Kd) was below 0.2 nM. The IC50 in assay [2] is below 0.1 µM.

As to `CNc1cc(Nc2cccn([C@H]3CC[C@H](OC)CC3)c2=O)nc2c(C(=O)N[C@H]3C[C@@H]3OC)cnn12` [Compound I-32, 5-((1-((1r,4S)-4-Methoxycyclohexyl)-2-oxo-1,2-dihydropyridin-3-yl)amino)-N-((1S,2S)-2-methoxycyclopropyl)-7-(methylamino)pyrazolo[1,5-a]pyrimidine-3-carboxamide], the dissociation constant Kd in assay [1] is below 0.2 nM. The compound further returned a 50% inhibitory concentration (IC50) in assay [2] below 0.1 µM.

On to `CNc1cc(Nc2cccn(C3CC(F)(F)C3)c2=O)nc2c(C(=O)N[C@H]3CC[C@H](O)C3)cnn12` [Compound I-41, 5-((1-(3,3-Difluorocyclobutyl)-2-oxo-1,2-dihydropyridin-3-yl)amino)-N-((1S,3S)-3-hydroxycyclopentyl)-7-(methylamino)pyrazolo[1,5-a]pyrimidine-3-carboxamide], for which, in assay [1], the equilibrium dissociation constant (Kd) was 0.2 to 1 nM. Also, in assay [2] (0.5 h), the IC50 is below 0.1 µM.

Consider `CNc1cc(Nc2cccn([C@H]3C[C@@H]3F)c2=O)nc2c(C(=O)N[C@H]3CC[C@@H]3OC)cnn12` [Compound I-49, 5-((1-((1S,2S)-2-Fluorocyclopropyl)-2-oxo-1,2-dihydropyridin-3-yl)amino)-N-((1S,2S)-2-methoxycyclobutyl)-7-(methylamino)pyrazolo[1,5-a]pyrimidine-3-carboxamide], for which the equilibrium dissociation constant (Kd) in assay [1] was below 0.2 nM. This compound also had an IC50 in assay [2] (0.5 h) below 0.1 µM.

Consider `CNc1cc(Nc2cccn([C@@H]3C[C@H]3F)c2=O)nc2c(C(=O)N[C@@H]3CC[C@H]3OC)cnn12` [Compound I-53, 5-((1-((1R,2R)-2-Fluorocyclopropyl)-2-oxo-1,2-dihydropyridin-3-γ1)amino)-N-((1R,2R)-2-methoxycyclobutyl)-7-(methylamino)pyrazolo[1,5-a]pyrimidine-3-carboxamide], for which the Kd in assay [1] is below 0.2 nM. Also, the IC50 in assay [2] is below 0.1 µM.

Turning to `CNc1cc(Nc2cccn(-c3ccccn3)c2=O)nc2c(C(N)=O)cnn12` [Compound I-119], the equilibrium dissociation constant (Kd) in assay [1] is below 0.2 nM. The compound also showed a 50% inhibitory concentration (IC50) in assay [2] of 0.1 to 0.5 µM.

Take `CNc1cc(Nc2cccn([C@H]3C[C@H](F)C3)c2=O)nc2c(C(=O)N[C@H]3C[C@@H]3OC)cnn12` [Compound I-138]: the dissociation constant Kd in assay [1] is below 0.2 nM. Further, in assay [2], the IC50 is below 0.1 µM.

`CNc1cc(Nc2cccn([C@H]3C[C@H](OC)C3)c2=O)nc2c(C(=O)NC3CCC3)cnn12` [Compound I-141]: in assay [1], the Kd is below 0.2 nM. The same compound displayed an IC50 in assay [2] below 0.1 µM.

For the compound `CNc1cc(Nc2cccn([C@H]3[C@@H]4COC[C@@H]43)c2=O)nc2c(C(=O)NC3CCC3)cnn12` [Compound I-142], the Kd in assay [1] was below 0.2 nM. The same compound registered a concentration for half-maximal inhibition (IC50) in assay [2] below 0.1 µM.

Regarding `CNc1cc(Nc2cccn(C3CCOCC3)c2=O)nc2c(C(=O)NC3CCC3)cnn12` [Compound I-143], the Kd in assay [1] is below 0.2 nM. The IC50 in assay [2] is below 0.1 µM.

As for `CNc1cc(Nc2cccn(-c3ocnc3C)c2=O)nc2c(C(=O)NC3CCC3)cnn12` [Compound I-144], the dissociation constant (Kd) in assay [1] was below 0.2 nM. In assay [2], this compound returned an IC50 below 0.1 µM.

For the compound `CNc1cc(Nc2cccn(C3COC3)c2=O)nc2c(C(=O)NC3CC[C@H]3F)cnn12` (stereo partly shown) [Compound I-160], the dissociation constant Kd in assay [1] is below 0.2 nM. The compound also yielded an IC50 in assay [2] below 0.1 µM.

Take `CNc1cc(Nc2cccn(C3COC3)c2=O)nc2c(C(=O)N[C@@H]3CC[C@@H]3F)cnn12` [Compound I-162]: the Kd in assay [1] was below 0.2 nM. In assay [2], this compound gave an IC50 below 0.1 µM.

As to `CNc1cc(Nc2cccn(C3COC3)c2=O)nc2c(C(=O)NC3CC[C@@H]3F)cnn12` (stereo partly shown) [Compound I-163], the Kd in assay [1] was below 0.2 nM. In addition, the IC50 in assay [2] was below 0.1 µM.

Take `CNc1cc(Nc2cccn(-c3ocnc3C)c2=O)nc2c(C(=O)NC3CC[C@@H]3F)cnn12` (stereo partly shown) [Compound I-185]: in assay [1], the dissociation constant (Kd) was below 0.2 nM. This compound returned a half-inhibitory concentration (IC50) in assay [2] below 0.1 µM.

On to `CNc1cc(Nc2cccn(-c3ocnc3C)c2=O)nc2c(C(=O)N[C@H]3CC[C@@H]3F)cnn12` [Compound I-186], for which the dissociation constant Kd in assay [1] is below 0.2 nM. Moreover, the IC50 in assay [2] is below 0.1 µM.

With `CO[C@H]1CC[C@@H]1NC(=O)c1cnn2c(N)cc(Nc3cccn(-c4ccccn4)c3=O)nc12` [Compound I-246], the dissociation constant (Kd) in assay [1] was below 0.2 nM. This compound returned a half-maximal inhibitory concentration (IC50) in assay [2] of 0.1 to 0.5 µM.

Consider `O=C(N[C@@H]1CC[C@H]1F)c1cnn2c3c(c(-c4cn([C@H]5C[C@H](O)C5)c5ncccc45)nc12)OCCN3` [Compound I-758], for which the Kd in assay [1] is below 0.2 nM.

For `CO[C@@H]1CC[C@H]1NC(=O)c1cnn2c3c(c(Nc4cccn([C@H]5[C@@H]6COC[C@@H]65)c4=O)nc12)OCCN3` [Compound I-763], the dissociation constant Kd in assay [1] is above 10 nM.

Turning to `CO[C@H]1CC[C@@H]1NC(=O)c1cnn2c3c(c(Nc4cccn([C@H]5[C@@H]6COC[C@@H]65)c4=O)nc12)OCCN3` [Compound I-764], the Kd in assay [1] is below 0.2 nM.

In the case of `CC(C)n1cccc(Nc2nc3c(C(=O)N[C@@H]4CCC4(F)F)cnn3c3c2OCCN3)c1=O` [Compound I-767], in assay [1], the Kd was below 0.2 nM.

As for `O=C(N[C@H]1CCC1(F)F)c1cnn2c3c(c(Nc4cccn([C@H]5[C@@H]6COC[C@@H]65)c4=O)nc12)OCCN3` [Compound I-770], in assay [1], the dissociation constant Kd was above 10 nM.

With `O=C(N[C@H]1CCC1(F)F)c1cnn2c3c(c(-c4cn(C5COC5)c5ncccc45)nc12)OCCN3` [Compound I-773], the Kd in assay [1] is below 0.2 nM.

Consider `CNc1cc(-c2cnc3n([C@@H]4COC[C@H]4OC)cccc2-3)nc2c(C(=O)N[C@@H]3C[C@@H]3F)cnn12` [Compound I-822], for which the Kd in assay [1] was below 0.2 nM.

Consider `CNc1cc(-c2cnc3n([C@H]4COC[C@@H]4OC)cccc2-3)nc2c(C(=O)N[C@@H]3C[C@@H]3F)cnn12` [Compound I-823], for which the Kd in assay [1] is below 0.2 nM.

As to `CNc1cc(-c2ccc(N3CC[C@H](OC)C3)c3nccn23)nc2c(C(=O)NC3CC[C@H]3O)cnn12` (stereo partly shown) [Compound I-907], the equilibrium dissociation constant (Kd) in assay [1] is below 0.2 nM.

In the case of `CNc1cc(-c2cn([C@H]3C[C@@H](COC)C3)c3ncccc23)nc2c(C(=O)N[C@@H]3CC[C@H]3OC)cnn12` [Compound I-934], the dissociation constant (Kd) in assay [1] is below 0.2 nM.

With `CNc1cc(-c2cnc3n(CC(=O)N(C)C)cccc2-3)nc2c(C(=O)NC3CC[C@@H]3OC)cnn12` (stereo partly shown) [Compound I-961], the Kd in assay [1] was below 0.2 nM.

Consider `CNc1cc(-c2cnc3n(CC(=O)N4CC5(COC5)C4)cccc2-3)nc2c(C(=O)N[C@@H]3CC[C@H]3OC)cnn12` [Compound I-1013], for which the Kd in assay [1] is below 0.2 nM.

Take `CNc1cc(-c2cn([C@H]3CO[C@@H](COC)C3)c3ncccc23)nc2c(C(=O)N[C@@H]3CC[C@H]3OC)cnn12` [Compound I-1019, N-((1R,2R)-2-methoxycyclobutyl)-5-(1-(5-(methoxymethyl)tetrahydrofuran-3-yl)-1H-pyrrolo[2,3-b]pyridin-3-yl)-7-(methylamino)pyrazolo[1,5-a]pyrimidine-3-carboxamide]: in assay [1], the Kd was 1 to 10 nM.

Take `CNc1cc(-c2cnc3n(C4CCN(CCOC)CC4)cccc2-3)nc2c(C(=O)N[C@@H]3CC[C@H]3OC)cnn12` [Compound I-1021, N-((1R,2R)-2-methoxycyclobutyl)-5-(7-(1-(2-methoxyethyl)piperidin-4-yl)-7H-pyrrolo[2,3-b]pyridin-3-yl)-7-(methylamino)pyrazolo[1,5-a]pyrimidine-3-carboxamide]: in assay [1], the Kd fell in the range of 0.2 to 1 nM.
